Positions of bridges follow the written chain, without caps; N, C: chain ends. Non-standard residues stand in square brackets, D forms with d. Residues, ends and D or L forms follow the SMILES beside them. Pro(trans-4-F) = O=C(O)[C@@H]1C[C@@H](F)CN1; d(aIle) = CC[C@H](C)[C@@H](N)C(=O)O; Aoc(2) = CCCCCC[C@H](N)C(=O)O; αMeL = CC(C)C[C@](C)(N)C(=O)O; Chg = N[C@H](C(=O)O)C1CCCCC1; hLeu = CC(C)CC[C@H](N)C(=O)O; β3hP = O=C(O)C[C@@H]1CCCN1; Pip = O=C(O)[C@@H]1CCCCN1; Ac5c = NC1(C(=O)O)CCCC1; Dap = NC[C@H](N)C(=O)O; Aib = CC(C)(N)C(=O)O; Sar = CNCC(=O)O
Molecular target: T1, human Oxytocin (OTR) receptor (Homo sapiens, UniProt P30559)
T1 construct: expressed in transfected cells
T1 sequence (P30559 1-389): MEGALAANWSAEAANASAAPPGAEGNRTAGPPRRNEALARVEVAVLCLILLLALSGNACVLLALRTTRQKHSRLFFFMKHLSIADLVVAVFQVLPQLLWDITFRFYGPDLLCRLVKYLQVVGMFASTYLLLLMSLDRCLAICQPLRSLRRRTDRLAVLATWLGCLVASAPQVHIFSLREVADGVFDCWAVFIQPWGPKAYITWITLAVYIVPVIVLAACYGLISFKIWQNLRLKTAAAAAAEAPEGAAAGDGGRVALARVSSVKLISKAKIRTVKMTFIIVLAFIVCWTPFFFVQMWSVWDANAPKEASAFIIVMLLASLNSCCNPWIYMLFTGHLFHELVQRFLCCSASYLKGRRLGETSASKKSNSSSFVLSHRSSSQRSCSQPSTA
Experiment: Calcium flux assay (FLIPR), agonist mode, CHO cells expressing human OTR
Assay type: cell-based
Settings: for EC50: CHO cells stably expressing human OTR, calcium flux, read-out: hOT EC50; for hOT efficacy (%) / Emax: maximum response normalized to endogenous full agonist = 100%; for Emax: CHO, read-out: hOT efficacy (%)
From the text: Chines Hamster Ovary (CHO) cells were transfected with expression plasmids encoding either the human V1a, the human Oxytocin (OTR) or the humanV2 receptor, the later in combination with the chimeric Gqs5 G protein to redirect the signal to Calcium flux. Stable cells were cloned by limiting dilution to yield monoclonal cell lines expressing either human V1a, human V2+Gqs5 or human OTR receptors and selected based on functional responses detected on a fluorometric imaging plate reader (FLIPR) detecting Calcium flux in the cell after receptor activation.
On the afternoon before the assay, cells were plated at a density of 50,000 cells/well into black 96 well plates with clear bottoms to allow cell inspection and fluorescence measurements from the bottom of each well. The density of cells was sufficient to yield a confluent monolayer the next day. Hanks balanced salt solution, without phenol red, containing 20 mM HEPES (pH 7.3) and 2.5 mM probenecid (assay buffer) was prepared fresh for each experiment. Compound dilutions were made using a Beckman Biomek 2000 laboratory automation workstation, in assay buffer containing 1% DMSO. The dye-loading buffer consisted of a final concentration of 2 μM Fluo-4-AM (dissolved in DMSO and pluronic acid) in assay buffer. […] Once dye-loaded, the cells were washed thoroughly on an Embla cell washer with the assay buffer to remove any unincorporated dye. Exactly 100 μl assay buffer was left in each well.
Each 96 well plate containing dye-loaded cells was placed into the FLIPR machine and the laser intensity set to a suitable level to detect low basal fluorescence. To test compounds as agonists, 25 μl diluted compound was added to the plate 10 seconds into the fluorescent measurements and fluorescent response was recorded for 5 minutes. The fluorescence data was normalized to the endogenous full agonist dose-response set at 100% for the maximum response and 0% for the minimum. […] The concentration of agonist that produced a half-maximal response is represented by the EC50 value, the logarithm of which yielded the pEC50 value.

| EC50 [nM] | hOT efficacy (%) | Emax [%] | SMILES |
| --- | --- | --- | --- |
| 4 | 94 | – | CC[C@H](C)[C@@H]1NC(=O)[C@H](Cc2ccc(O)cc2)NC(=O)[C@H](C)NC(=O)CC[C@@H](C(=O)N2CCC[C@H]2C(=O)N[C@@H](CC(C)C)C(=O)NCC(N)=O)NC(=O)[C@H](CC(N)=O)NC(=O)[C@H](CCC(N)=O)NC1=O [Example 3] (AYIQNEPLG-NH2; lactam N-6) |
| 31 | 102 | – | CC[C@H](C)[C@@H]1NC(=O)[C@H](Cc2ccc(O)cc2)NC(=O)CNC(=O)CC[C@@H](C(=O)N2CCC[C@H]2CC(=O)N[C@@H](CC(C)C)C(=O)NCC(N)=O)NC(=O)[C@H](CC(N)=O)NC(=O)[C@H](CCC(N)=O)NC1=O [Example 4] (GYIQNE[β3hP]LG-NH2; lactam N-6) |
| 181 | 108 | – | CC[C@H](C)[C@@H]1NC(=O)[C@H](Cc2ccc(O)cc2)NC(=O)CNC(=O)CC[C@@H](C(=O)N2CCC[C@H]2C(=O)N[C@@H](CC(C)C)C(=O)N(C)CC(N)=O)NC(=O)[C@H](CC(N)=O)NC(=O)[C@H](CCC(N)=O)NC1=O [Example 5] (GYIQNEPL[Sar]-NH2; lactam N-6) |
| 124 | 87 | – | CC[C@H](C)[C@@H]1NC(=O)[C@H](Cc2ccc(O)cc2)NC(=O)CNC(=O)CC[C@@H](C(=O)N2CCC[C@H]2C(=O)NCC(=O)NCC(N)=O)NC(=O)[C@H](CC(N)=O)NC(=O)[C@H](CCC(N)=O)NC1=O [Example 7] (GYIQNEPGG-NH2; lactam N-6) |
| 100 | 92 | – | CC(C)C[C@@H]1NC(=O)[C@H](Cc2ccc(O)cc2)NC(=O)CNC(=O)CC[C@@H](C(=O)N2CCC[C@H]2C(=O)N[C@@H](CC(C)C)C(=O)NCC(N)=O)NC(=O)[C@H](CC(N)=O)NC(=O)[C@H](CCC(N)=O)NC1=O [Example 8] (GYLQNEPLG-NH2; lactam N-6) |
| 118 | 93 | – | CC[C@H](C)[C@@H]1NC(=O)[C@H](Cc2ccc(O)cc2)NC(=O)CNC(=O)CC[C@@H](C(=O)N2CCC[C@H]2C(=O)N[C@@H](CC(C)C)C(=O)NCC(N)=O)NC(=O)[C@H](CC(N)=O)NC(=O)[C@H](Cc2cnc[nH]2)NC1=O [Example 9] (GYIHNEPLG-NH2; lactam N-6) |
| 48 | 82 | – | CC[C@H](C)[C@@H]1NC(=O)[C@H](Cc2ccc(O)cc2)NC(=O)CN(C)C(=O)CC[C@@H](C(=O)N2CCC[C@H]2C(=O)N[C@@H](CC(C)C)C(=O)NCC(N)=O)NC(=O)[C@H](CC(N)=O)NC(=O)[C@H](CCC(N)=O)NC1=O [Example 12] ([Sar]YIQNEPLG-NH2; lactam N-6) |
| 250 | 92 | – | CC[C@H](C)[C@@H]1NC(=O)[C@H](Cc2ccc(O)cc2)NC(=O)CNC(=O)CC[C@H](C(=O)N2CCC[C@H]2C(=O)N[C@@H](CC(C)C)C(=O)NCC(N)=O)NC(=O)[C@H](CC(N)=O)NC(=O)[C@H](CCC(N)=O)NC1=O [Example 14] (GYIQN[dE]PLG-NH2; lactam N-6) |
| 98 | 116 | – | CC[C@H](C)[C@H]1NC(=O)[C@H](Cc2ccc(O)cc2)NC(=O)CNC(=O)CC[C@@H](C(=O)N2CCC[C@H]2C(=O)N[C@@H](CC(C)C)C(=O)NCC(N)=O)NC(=O)[C@H](CC(N)=O)NC(=O)[C@H](CCC(N)=O)NC1=O [Example 22] (GY[d(aIle)]QNEPLG-NH2; lactam N-6) |
| 88 | 64 | – | CC[C@H](C)[C@@H]1NC(=O)[C@H](Cc2ccc(O)cc2)NC(=O)CNC(=O)CC[C@@H](C(=O)N2CCC[C@@H]2C(=O)N[C@@H](CC(C)C)C(=O)NCC(N)=O)NC(=O)[C@H](CC(N)=O)NC(=O)[C@H](CCC(N)=O)NC1=O [Example 23] (GYIQNE[dP]LG-NH2; lactam N-6) |
| 41 | 138 | – | CC[C@H](C)[C@@H]1NC(=O)[C@H](Cc2ccc(O)cc2)NC(=O)CNC(=O)CC[C@@H](C(=O)N2CCC[C@H]2C(=O)N[C@@](C)(CC(C)C)C(=O)NCC(N)=O)NC(=O)[C@H](CC(N)=O)NC(=O)[C@H](CCC(N)=O)NC1=O [Example 36] (GYIQNEP[αMeL]G-NH2; lactam N-6) |
| 4 | – | 137 | CC[C@H](C)[C@@H]1NC(=O)[C@H](Cc2ccc(O)cc2)NC(=O)CNC(=O)CC[C@@H](C(=O)N(C)CC(=O)N[C@@H](CC(C)C)C(=O)NCC(N)=O)NC(=O)[C@H](CC(N)=O)NC(=O)[C@H](C)NC1=O [Example 37] (GYIANE[Sar]LG-NH2; lactam N-6) |
| 1 | – | 126 | CC[C@H](C)[C@@H]1NC(=O)[C@H](Cc2ccc(O)cc2)NC(=O)CNC(=O)CC[C@@H](C(=O)N(C)CC(=O)N[C@@H](Cc2c[nH]c3ccccc23)C(=O)NCC(N)=O)NC(=O)[C@H](CC(N)=O)NC(=O)[C@H](CCC(N)=O)NC1=O [Example 38] (GYIQNE[Sar]WG-NH2; lactam N-6) |
| 69 | 117 | – | CC[C@H](C)[C@@H]1NC(=O)[C@H](Cc2ccc(O)cc2)NC(=O)CNC(=O)CC[C@@H](C(=O)N(C)CC(=O)N[C@H](C(=O)NCC(N)=O)C2CCCCC2)NC(=O)[C@H](CC(N)=O)NC(=O)[C@H](CCC(N)=O)NC1=O [Example 41] (GYIQNE[Sar][Chg]G-NH2; lactam N-6) |
| 1 | – | 119 | CC[C@H](C)[C@@H]1NC(=O)[C@H](Cc2ccc(O)cc2)NC(=O)CNC(=O)CC[C@@H](C(=O)N(C)CC(=O)N[C@@H](CN)C(=O)NCC(N)=O)NC(=O)[C@H](CC(N)=O)NC(=O)[C@H](CCC(N)=O)NC1=O [Example 42] (GYIQNE[Sar][Dap]G-NH2; lactam N-6) |
| 26 | 124 | – | CC[C@H](C)[C@@H]1NC(=O)[C@H](Cc2ccc(O)cc2)NC(=O)CNC(=O)CC[C@@H](C(=O)N(C)CC(=O)N[C@@H](CCC(C)C)C(=O)NCC(N)=O)NC(=O)[C@H](CC(N)=O)NC(=O)[C@H](CCC(N)=O)NC1=O [Example 43] (GYIQNE[Sar][hLeu]G-NH2; lactam N-6) |
| 1.5 | – | 111 | CC[C@H](C)[C@@H]1NC(=O)[C@H](Cc2ccc(O)cc2)NC(=O)CNC(=O)CC[C@@H](C(=O)N2CCCC[C@H]2C(=O)N[C@@H](CC(C)C)C(=O)NCC(N)=O)NC(=O)[C@H](CC(N)=O)NC(=O)[C@H](CCC(N)=O)NC1=O [Example 47] (GYIQNE[Pip]LG-NH2; lactam N-6) |
| 3.6 | – | 108 | CC[C@H](C)[C@@H]1NC(=O)[C@H](Cc2ccc(O)cc2)NC(=O)CNC(=O)CC[C@@H](C(=O)N(C)CC(=O)NC2(C(=O)NCC(N)=O)CCCC2)NC(=O)[C@H](CC(N)=O)NC(=O)[C@H](CCC(N)=O)NC1=O [Example 48] (GYIQNE[Sar][Ac5c]G-NH2; lactam N-6) |
| 5.9 | – | 97 | CC[C@H](C)[C@@H]1NC(=O)[C@H](Cc2ccc(O)cc2)NC(=O)CNC(=O)CC[C@@H](C(=O)N(C)CC(=O)NC(C)(C)C(=O)NCC(N)=O)NC(=O)[C@H](CC(N)=O)NC(=O)[C@H](CCC(N)=O)NC1=O [Example 49] (GYIQNE[Sar][Aib]G-NH2; lactam N-6) |
| 4.3 | – | 121 | CC[C@H](C)[C@@H]1NC(=O)[C@H](Cc2ccc(O)cc2)NC(=O)CNC(=O)CC[C@@H](C(=O)N(C)CC(=O)N[C@@H](CC(C)C)C(=O)NCC(N)=O)NC(=O)[C@H](CC(N)=O)NC(=O)[C@H](CO)NC1=O [Example 52] (GYISNE[Sar]LG-NH2; lactam N-6) |
| 1.1 | – | 127 | CCCCCC[C@H](NC(=O)CN(C)C(=O)[C@@H]1CCC(=O)NCC(=O)N[C@@H](Cc2ccc(O)cc2)C(=O)N[C@@H]([C@@H](C)CC)C(=O)N[C@@H](CCC(N)=O)C(=O)N[C@@H](CC(N)=O)C(=O)N1)C(=O)NCC(N)=O [Example 53] (GYIQNE[Sar][Aoc(2)]G-NH2; lactam N-6) |

| SMILES | EC50 [nM] | hOT efficacy (%) | Emax [%] |
| --- | --- | --- | --- |
| CC[C@H](C)[C@@H]1NC(=O)[C@H](Cc2ccc(O)cc2)NC(=O)CNC(=O)CC[C@@H](C(=O)N2C[C@H](F)C[C@H]2C(=O)N[C@@H](CC(C)C)C(=O)NCC(N)=O)NC(=O)[C@H](CC(N)=O)NC(=O)[C@H](CCC(N)=O)NC1=O [Example 46] (GYIQNE[Pro(trans-4-F)]LG-NH2; lactam N-6) | 10 | 104 | – |

From patent US9868766B2, “Peptides as oxytocin agonists” (Hoffmann-La Roche Inc., priority 2012, dated 2018)
